Reference: patent publication US20250387375A1, “SOFALCONE DERIVATIVES AND MEDICAL USE THEREOF” (KAOHSIUNG MEDICAL UNIVERSITY, priority 2024, published 2025)

Columns and labels:
[1] = tested on: human platelet suspension (platelet aggregation caused by TxA2 agonist U46619); assay: Platelet aggregation reaction test, U46619-induced; type: cell-based
Procedure: (§1) Blood samples were collected from healthy donors, and acid-citrate-dextrose (ACD) solution was used as an anticoagulant. The blood samples were centrifuged to obtain platelets, and residual plasma was removed by washing to prepare platelet suspension.
(§2) In the experimental method, a platelet aggregometer (Chrono-Log Co., Havertown, PA, USA) was used for tests. The compound to be tested was added to the platelet suspension and reacted for 3 minutes at 37° C. with stirring (1200 rpm). Then, platelet stimulator U46619 or collagen was added to initiate platelet aggregation, and the test time was 5 minutes. The principle of the platelet aggregation test was: when platelets were stimulated to induce aggregation reaction, the light transmission of the platelet suspension would increase; by calculating changes in light transmission of the platelet suspension before and after being stimulated, the percentage of platelet aggregation could be obtained.

[2] = tested on: human platelet suspension (platelet aggregation caused by collagen); assay: Platelet aggregation reaction test, collagen-induced; type: cell-based; conditions: read-out: Collagen IC 50
Procedure: as §1, §2

SMILES	IC50 [1]	IC50 [2]
COC(=O)CCCCCOc1ccccc1C(=O)C=Cc1ccccc1 [Compound 113]	0.57 µM	0.35 µM
O=C(O)COc1ccccc1C(=O)C=Cc1cccs1 [Compound 57]	71.5 µM	15.5 µM
CC(C)=CCOc1ccc(C(=O)/C=C/c2ccccc2OCC=C(C)C)c(OCC(=O)O)c1 [Compound 19]	20.3 µM	15.2 µM
O=C(O)CCCCCOc1ccccc1C(=O)C=Cc1cccnc1 [Compound 54]	5.45 µM	22.1 µM
CCOC(=O)CCCOc1cc(OCC=C(C)C)ccc1C(=O)C=Cc1cccs1 [Compound 64]	5.87 µM	3.85 µM
O=C(O)CCCCCCOc1ccccc1C(=O)C=Cc1ccccc1 [Compound 105]	2.92 µM	9.08 µM
CC(C)=CCOc1ccc(C(=O)/C=C/c2ccc(F)cc2)c(OCC(=O)O)c1 [Compound 23]	22.2 µM	33.5 µM
CC(C)=CCOc1ccc(CCC(=O)c2ccc(OCC=C(C)C)cc2OCC(=O)O)cc1 [Compound 76]	12.6 µM	31 µM
CCOC(=O)COc1cc(O)ccc1C(=O)C=Cc1ccc([N+](=O)[O-])cc1 [Compound 45]	> 20 µM	> 20 µM
CCCCCCOc1ccc(C=CC(=O)c2ccc(OCCCCCC)cc2OCC(=O)O)cc1 [Compound 95]	36.9 µM	76.3 µM
CCCCCCCCOc1ccc(C=CC(=O)c2ccc(OCCCCCCCC)cc2OCC(=O)OC)cc1 [Compound 92]	> 50 µM	> 50 µM
O=C(O)CCCCCCCOc1ccccc1C(=O)C=Cc1ccccc1 [Compound 107]	2.49 µM	8.35 µM
CCOC(=O)CCCCCOc1ccccc1C(=O)C=Cc1ccco1 [Compound 62]	0.48 µM	0.58 µM
